Laboratory results from ChEMBL document CHEMBL1201862, “PubChem BioAssay data set” (2004).
Calls of active or inactive are those of the source.

Experiments:
[1] = biological target: DNA dC->dU-editing enzyme APOBEC-3A (Homo sapiens, UniProt P31941); assay: Dose Response confirmation of small molecule APOBEC3A DNA Deaminase Inhibitors via a fluorescence-based single-stranded DNA deaminase assay. [Related pubchem assays (depositor defined):AID493011, AID493024]; type: functional
[2] = biological target: DNA dC->dU-editing enzyme APOBEC-3G (Homo sapiens, UniProt Q9HC16); type: functional;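 note: Dose-response counterscreen measuring inhibition of APOBEC3G DNA deaminase activity, run while confirming APOBEC3A inhibitors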
SUMO-activating enzyme [3] = biological target: T1, SUMO-activating enzyme (Homo sapiens, UniProt Q9UBT2); assay: SUMOylation inhibitor hit validation, confirmation, SUMOylation inhibitor project, biochemical, AlphaScreen (AID 2018); type: functional
Large T antigen = Large T antigen (Simian virus 40, UniProt P03070); type: functional, Betapolyomavirus macacae;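 note: Confirmatory-stage PubChem screen for compounds that inhibit SV40 T antigen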
SUMO-activating enzyme [4] = biological target: T1, SUMO-activating enzyme; assay: inhibitors of in vitro SUMOylation cascade, primary screen, biochemical, HTRF, uHTS (AID 2006); type: protein-complex assay
[5] = biological target: Induced myeloid leukemia cell differentiation protein Mcl-1 (Homo sapiens, UniProt Q07820); type: functional
[6] = biological target: T2, Heat shock factor protein 1 (Mus musculus, UniProt P38532); assay: HSF1 potentiators in luciferase reporter cells, confirmation, cell-based, NIH3T3, luminescence, dose retest (AID 435004); type: functional;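 note: stress induced by proteasome inhibitor MG132 added 30 min after compound; luciferase reporter driven by HSF1 response element in NIH3T3 cells; actives raise luminescence as potentiators of the MG132 stress response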
T2 sequence (P38532 whole entry): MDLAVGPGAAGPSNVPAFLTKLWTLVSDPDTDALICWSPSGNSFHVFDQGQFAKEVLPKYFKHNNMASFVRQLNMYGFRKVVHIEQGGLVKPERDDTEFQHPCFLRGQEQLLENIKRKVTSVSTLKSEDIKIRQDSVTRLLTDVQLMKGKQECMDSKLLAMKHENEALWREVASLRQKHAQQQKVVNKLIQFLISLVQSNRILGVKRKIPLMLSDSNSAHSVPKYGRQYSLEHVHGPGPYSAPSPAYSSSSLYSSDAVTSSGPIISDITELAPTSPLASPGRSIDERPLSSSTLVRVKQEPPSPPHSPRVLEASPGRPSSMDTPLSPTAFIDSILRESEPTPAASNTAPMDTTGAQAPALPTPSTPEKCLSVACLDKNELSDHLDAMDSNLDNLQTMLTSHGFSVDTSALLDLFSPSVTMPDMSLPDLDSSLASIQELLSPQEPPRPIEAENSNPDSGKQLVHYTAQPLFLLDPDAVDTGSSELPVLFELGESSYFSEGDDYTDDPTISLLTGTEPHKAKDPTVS

[7] = biological target: T3, Microphthalmia-associated transcription factor (Homo sapiens, UniProt O75030); assay: TRPM1 promoter luciferase signal decrease, dose response, MITF inhibitor project, cell-based, SK-MEL-5, cherry-picked, set 3 (AID 493073); type: functional
T3 sequence (O75030 whole entry): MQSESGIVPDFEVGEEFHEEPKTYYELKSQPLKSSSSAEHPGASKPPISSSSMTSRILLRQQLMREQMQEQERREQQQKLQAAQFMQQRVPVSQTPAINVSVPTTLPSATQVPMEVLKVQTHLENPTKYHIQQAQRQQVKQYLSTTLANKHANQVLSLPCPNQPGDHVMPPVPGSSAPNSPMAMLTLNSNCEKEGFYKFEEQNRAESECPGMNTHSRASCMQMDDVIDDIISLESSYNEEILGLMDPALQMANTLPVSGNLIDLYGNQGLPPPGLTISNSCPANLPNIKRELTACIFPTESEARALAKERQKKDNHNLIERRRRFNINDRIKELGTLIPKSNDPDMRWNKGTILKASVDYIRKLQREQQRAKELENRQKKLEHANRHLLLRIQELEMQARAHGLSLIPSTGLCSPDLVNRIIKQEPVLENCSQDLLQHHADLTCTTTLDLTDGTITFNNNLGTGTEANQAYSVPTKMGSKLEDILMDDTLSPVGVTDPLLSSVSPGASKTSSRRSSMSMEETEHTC

Vero [8] = assay: Vero cell cytotoxicity, cytotoxicity control for flavivirus capping enzyme inhibitors (AID 588742); type: functional; settings: Chlorocebus sabaeus
Vero [9] = assay: cells; type: functional; settings: Chlorocebus sabaeus
Genome polyprotein = Genome polyprotein (dengue virus type 2, UniProt P29990); assay: Dengue-2 NS5 methyltransferase inhibitors, primary screen, biochemical, confirmation dose response (AID 588689); type: functional
[10] = biological target: DNA (cytosine-5)-methyltransferase 1 (Homo sapiens, UniProt P26358); assay: DNMT1 methyltransferase inhibitors, confirmation, biochemical, fluorescent molecular beacon (AID 602386); type: functional
[11] = biological target: Peroxisome proliferator-activated receptor gamma/Nuclear receptor coactivator 1 (Homo sapiens, UniProt P37231); assay: (§1) TR-FRET dose response biochemical High Throughput Screening assay for agonists of the steroid receptor coactivator 1 (SRC-1) recruitment by the peroxisome proliferator-activated receptor gamma (PPAR gamma): non-selective agonists. [Related pubchem assays (depositor defined):AID1300, AID1808, AID504735, AID631]; type: protein assay
[12] = biological target: Peroxisome proliferator-activated receptor gamma/Nuclear receptor coactivator 3 (Homo sapiens, UniProt P37231); assay: as §1, with “3 (SRC-3)” for “1 (SRC-1)”, “assays: 1301 (Confirmation screen.), 1048 (Primary screen.)]” for “assays (depositor defined):AID1300, AID1808, AID504735, AID631]”; type: functional
[13] = biological target: Peroxisome proliferator-activated receptor gamma/Nuclear receptor coactivator 2 (Homo sapiens, UniProt P37231); assay: TR-FRET dose response biochemical High Throughput Screening assay for agonists of the steroid receptor coactivator 2 (SRC-2) recruitment by the peroxisome proliferator-activated receptor gamma (PPAR gamma): non-selective agonists. [Related pubchem assays: 1297, 1032 ]; type: functional
Protein skinhead-1 = biological target: T4, Protein skinhead-1 (Caenorhabditis elegans, UniProt P34707); type: functional
T4 sequence (P34707 whole entry): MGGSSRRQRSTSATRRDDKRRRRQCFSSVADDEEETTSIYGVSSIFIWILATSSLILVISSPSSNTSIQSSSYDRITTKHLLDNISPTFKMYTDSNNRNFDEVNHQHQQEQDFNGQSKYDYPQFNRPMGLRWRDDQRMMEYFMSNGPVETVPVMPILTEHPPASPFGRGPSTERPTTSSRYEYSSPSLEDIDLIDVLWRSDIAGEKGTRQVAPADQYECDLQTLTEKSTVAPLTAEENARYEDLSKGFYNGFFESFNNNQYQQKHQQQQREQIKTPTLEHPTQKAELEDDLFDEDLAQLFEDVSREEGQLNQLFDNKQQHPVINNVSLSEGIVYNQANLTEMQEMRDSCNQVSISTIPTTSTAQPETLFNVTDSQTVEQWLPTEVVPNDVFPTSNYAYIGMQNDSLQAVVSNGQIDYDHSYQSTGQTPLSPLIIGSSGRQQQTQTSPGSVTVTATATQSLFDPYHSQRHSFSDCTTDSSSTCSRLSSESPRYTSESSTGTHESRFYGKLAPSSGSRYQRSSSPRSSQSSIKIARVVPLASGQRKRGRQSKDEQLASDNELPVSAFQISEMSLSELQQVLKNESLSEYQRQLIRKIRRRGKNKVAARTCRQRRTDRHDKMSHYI

[14] = mammalian cell cytotoxicity, dose response, cytotoxicity control, plate reader, cherry-pick samples (AID 504397); type: functional, cell-based
[15] = THP-1 cell cytotoxicity, dose response, cytotoxicity control for Vif-APOBEC3G degradation inhibitor project, THP-1 cells (AID 1117359); type: functional; settings: Human immunodeficiency virus 1, THP-1
Leucine aminopeptidase = biological target: T5, Leucine aminopeptidase (Plasmodium falciparum 3D7, UniProt Q8IL11); assay: P. falciparum M17LAP inhibitors, primary screen, biochemical, fluorogenic H-Leu-NHMec substrate, 1536-well (AID 1619); type: functional
T5 sequence (Q8IL11 whole entry): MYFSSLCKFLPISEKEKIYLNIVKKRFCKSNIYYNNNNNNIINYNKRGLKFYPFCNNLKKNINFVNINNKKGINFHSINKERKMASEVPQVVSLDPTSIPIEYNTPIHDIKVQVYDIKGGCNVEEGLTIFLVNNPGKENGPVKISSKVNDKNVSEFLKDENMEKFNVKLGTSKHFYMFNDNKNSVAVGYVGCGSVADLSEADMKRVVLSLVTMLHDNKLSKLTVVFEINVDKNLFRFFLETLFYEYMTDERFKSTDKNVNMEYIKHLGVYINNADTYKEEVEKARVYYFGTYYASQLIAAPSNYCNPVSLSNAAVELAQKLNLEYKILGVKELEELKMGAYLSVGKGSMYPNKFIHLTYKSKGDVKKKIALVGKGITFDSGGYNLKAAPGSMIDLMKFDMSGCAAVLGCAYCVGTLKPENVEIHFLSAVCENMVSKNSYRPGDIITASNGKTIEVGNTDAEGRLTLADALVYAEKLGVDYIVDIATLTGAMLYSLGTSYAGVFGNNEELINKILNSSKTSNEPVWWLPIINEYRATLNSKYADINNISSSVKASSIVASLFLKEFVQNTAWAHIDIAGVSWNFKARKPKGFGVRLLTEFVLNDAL

Estrogen receptor beta = Estrogen receptor beta (Homo sapiens, UniProt Q92731); assay: ERβ–SRC-3 coactivator interaction inhibitors, confirmation, orthogonal assay, biochemical, ELISA, streptavidin-HRP readout (AID 1060)
ORF 73 = ORF 73 (Human herpesvirus 8, UniProt O40947); assay: inhibitors of C-LANA binding to LBS DNA, dose response, biochemical, fluorescence polarization, cherry-picked samples (AID 504725); parameters: species or system Human gammaherpesvirus 8;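 note: fluorescence polarization of a labeled DNA duplex reporting LANA DNA binding; potency is for inhibitors that block LANA binding to the DNA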
ORF 73, sequence (O40947 whole entry): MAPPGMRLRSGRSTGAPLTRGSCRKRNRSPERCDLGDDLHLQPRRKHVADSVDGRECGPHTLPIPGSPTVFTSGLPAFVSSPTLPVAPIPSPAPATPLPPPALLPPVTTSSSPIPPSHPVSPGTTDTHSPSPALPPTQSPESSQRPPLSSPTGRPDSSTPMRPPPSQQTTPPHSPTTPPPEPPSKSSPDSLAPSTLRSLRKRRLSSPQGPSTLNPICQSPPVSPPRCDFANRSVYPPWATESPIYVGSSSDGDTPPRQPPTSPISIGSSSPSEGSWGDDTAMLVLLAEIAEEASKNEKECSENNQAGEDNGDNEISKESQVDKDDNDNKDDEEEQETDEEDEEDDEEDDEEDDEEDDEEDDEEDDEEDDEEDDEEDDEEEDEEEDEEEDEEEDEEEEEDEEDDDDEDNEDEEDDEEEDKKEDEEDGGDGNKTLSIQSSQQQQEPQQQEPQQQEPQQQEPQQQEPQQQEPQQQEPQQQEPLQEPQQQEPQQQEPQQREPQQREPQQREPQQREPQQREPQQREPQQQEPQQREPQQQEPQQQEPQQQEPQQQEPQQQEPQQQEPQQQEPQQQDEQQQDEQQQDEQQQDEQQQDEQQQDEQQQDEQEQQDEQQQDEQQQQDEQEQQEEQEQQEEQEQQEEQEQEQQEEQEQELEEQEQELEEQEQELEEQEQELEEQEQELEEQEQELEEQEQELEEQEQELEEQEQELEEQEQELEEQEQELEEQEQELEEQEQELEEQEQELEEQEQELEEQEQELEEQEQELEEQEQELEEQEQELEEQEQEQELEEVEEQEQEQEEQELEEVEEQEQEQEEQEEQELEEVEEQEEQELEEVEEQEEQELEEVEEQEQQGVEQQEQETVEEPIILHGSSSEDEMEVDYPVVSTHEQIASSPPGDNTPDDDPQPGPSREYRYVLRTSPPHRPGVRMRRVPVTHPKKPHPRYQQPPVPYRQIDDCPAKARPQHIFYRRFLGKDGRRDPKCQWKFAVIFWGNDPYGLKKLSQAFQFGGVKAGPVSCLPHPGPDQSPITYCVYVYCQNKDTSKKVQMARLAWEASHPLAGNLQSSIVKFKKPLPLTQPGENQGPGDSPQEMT

T1 sequence (Q9UBE0 whole entry): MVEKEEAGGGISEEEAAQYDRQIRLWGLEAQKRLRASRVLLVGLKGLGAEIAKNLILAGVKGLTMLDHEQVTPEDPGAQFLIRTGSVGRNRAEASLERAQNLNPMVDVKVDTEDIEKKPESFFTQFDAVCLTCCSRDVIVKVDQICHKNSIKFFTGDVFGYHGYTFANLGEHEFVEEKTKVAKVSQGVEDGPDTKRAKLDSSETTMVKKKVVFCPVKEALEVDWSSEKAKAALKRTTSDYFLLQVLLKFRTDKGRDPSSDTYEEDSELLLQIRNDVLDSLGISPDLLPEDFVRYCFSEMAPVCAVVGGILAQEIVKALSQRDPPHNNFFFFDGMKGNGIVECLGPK
T1 sequence (Q9UBT2 whole entry): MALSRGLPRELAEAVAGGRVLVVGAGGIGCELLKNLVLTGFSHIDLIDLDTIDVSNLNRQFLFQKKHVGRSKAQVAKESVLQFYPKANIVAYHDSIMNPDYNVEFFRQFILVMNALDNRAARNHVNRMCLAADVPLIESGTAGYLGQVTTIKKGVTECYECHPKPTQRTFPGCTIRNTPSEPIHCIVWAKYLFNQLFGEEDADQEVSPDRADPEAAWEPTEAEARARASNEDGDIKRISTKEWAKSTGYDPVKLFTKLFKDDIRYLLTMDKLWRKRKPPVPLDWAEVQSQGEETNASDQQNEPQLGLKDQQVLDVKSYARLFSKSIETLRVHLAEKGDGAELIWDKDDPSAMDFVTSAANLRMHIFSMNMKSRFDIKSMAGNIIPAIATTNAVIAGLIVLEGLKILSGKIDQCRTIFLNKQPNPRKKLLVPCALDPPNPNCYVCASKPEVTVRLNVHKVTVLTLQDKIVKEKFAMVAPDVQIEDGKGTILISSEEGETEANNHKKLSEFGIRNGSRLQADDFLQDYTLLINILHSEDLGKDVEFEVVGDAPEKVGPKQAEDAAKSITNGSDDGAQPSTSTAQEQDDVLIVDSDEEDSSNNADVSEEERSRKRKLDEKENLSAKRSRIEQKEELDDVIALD
Large T antigen, sequence (P03070 whole entry): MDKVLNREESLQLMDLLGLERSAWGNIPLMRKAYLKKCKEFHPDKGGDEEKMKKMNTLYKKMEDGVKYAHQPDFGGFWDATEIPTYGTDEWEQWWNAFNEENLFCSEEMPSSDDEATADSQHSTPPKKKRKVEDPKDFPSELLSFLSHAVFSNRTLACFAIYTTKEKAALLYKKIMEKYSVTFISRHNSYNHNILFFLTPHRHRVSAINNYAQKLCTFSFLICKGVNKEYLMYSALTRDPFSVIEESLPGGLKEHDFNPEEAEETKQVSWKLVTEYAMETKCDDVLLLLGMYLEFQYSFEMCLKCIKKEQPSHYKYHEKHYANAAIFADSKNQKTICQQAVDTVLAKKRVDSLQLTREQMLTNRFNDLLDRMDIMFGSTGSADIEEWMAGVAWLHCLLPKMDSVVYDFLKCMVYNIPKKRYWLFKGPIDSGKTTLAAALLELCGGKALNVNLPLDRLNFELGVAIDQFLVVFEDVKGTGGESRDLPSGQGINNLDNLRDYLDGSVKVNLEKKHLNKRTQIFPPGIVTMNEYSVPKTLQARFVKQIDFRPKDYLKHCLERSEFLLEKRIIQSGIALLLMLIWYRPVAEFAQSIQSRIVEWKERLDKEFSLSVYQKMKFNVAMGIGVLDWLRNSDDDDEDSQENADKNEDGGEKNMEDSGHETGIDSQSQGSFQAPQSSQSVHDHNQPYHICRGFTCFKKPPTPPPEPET
Induced myeloid leukemia cell differentiation protein Mcl-1, sequence (Q07820 whole entry): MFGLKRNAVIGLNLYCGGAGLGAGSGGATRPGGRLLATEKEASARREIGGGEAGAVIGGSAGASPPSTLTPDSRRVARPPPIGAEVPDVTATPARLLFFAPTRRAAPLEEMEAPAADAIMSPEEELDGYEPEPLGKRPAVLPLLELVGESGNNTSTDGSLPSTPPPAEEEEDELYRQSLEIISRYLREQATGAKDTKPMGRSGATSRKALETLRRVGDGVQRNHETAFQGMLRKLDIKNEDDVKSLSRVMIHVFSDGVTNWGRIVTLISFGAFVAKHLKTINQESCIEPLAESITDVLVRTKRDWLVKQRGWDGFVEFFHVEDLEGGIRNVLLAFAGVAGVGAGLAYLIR
Estrogen receptor beta, sequence (Q92731 whole entry): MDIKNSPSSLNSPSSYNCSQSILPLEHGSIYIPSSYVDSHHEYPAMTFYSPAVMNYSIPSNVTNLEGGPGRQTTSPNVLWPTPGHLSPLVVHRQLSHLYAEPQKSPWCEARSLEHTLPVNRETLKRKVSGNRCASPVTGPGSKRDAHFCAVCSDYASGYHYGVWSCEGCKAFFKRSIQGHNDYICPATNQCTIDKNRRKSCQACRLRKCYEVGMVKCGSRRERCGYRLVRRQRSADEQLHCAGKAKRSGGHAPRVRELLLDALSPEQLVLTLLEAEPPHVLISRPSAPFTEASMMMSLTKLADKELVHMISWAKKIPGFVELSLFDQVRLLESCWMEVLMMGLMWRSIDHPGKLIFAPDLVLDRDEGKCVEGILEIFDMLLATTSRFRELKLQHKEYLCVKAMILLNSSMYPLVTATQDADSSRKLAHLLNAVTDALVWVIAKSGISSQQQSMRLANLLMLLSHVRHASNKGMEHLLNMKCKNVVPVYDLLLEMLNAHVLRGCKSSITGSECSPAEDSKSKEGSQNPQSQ
DNA dC->dU-editing enzyme APOBEC-3G, sequence (Q9HC16 whole entry): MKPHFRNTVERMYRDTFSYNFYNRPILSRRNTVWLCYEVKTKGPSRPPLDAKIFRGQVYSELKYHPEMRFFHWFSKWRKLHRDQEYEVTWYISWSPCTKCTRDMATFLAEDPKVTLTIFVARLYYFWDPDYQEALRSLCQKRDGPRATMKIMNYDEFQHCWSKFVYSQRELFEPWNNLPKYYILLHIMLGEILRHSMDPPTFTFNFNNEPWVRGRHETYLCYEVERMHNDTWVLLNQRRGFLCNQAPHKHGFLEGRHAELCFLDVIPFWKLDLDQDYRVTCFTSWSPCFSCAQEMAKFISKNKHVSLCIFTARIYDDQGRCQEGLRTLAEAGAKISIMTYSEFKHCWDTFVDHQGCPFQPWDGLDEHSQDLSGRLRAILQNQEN
Genome polyprotein, sequence (P29990 2492-3391 limits assumed): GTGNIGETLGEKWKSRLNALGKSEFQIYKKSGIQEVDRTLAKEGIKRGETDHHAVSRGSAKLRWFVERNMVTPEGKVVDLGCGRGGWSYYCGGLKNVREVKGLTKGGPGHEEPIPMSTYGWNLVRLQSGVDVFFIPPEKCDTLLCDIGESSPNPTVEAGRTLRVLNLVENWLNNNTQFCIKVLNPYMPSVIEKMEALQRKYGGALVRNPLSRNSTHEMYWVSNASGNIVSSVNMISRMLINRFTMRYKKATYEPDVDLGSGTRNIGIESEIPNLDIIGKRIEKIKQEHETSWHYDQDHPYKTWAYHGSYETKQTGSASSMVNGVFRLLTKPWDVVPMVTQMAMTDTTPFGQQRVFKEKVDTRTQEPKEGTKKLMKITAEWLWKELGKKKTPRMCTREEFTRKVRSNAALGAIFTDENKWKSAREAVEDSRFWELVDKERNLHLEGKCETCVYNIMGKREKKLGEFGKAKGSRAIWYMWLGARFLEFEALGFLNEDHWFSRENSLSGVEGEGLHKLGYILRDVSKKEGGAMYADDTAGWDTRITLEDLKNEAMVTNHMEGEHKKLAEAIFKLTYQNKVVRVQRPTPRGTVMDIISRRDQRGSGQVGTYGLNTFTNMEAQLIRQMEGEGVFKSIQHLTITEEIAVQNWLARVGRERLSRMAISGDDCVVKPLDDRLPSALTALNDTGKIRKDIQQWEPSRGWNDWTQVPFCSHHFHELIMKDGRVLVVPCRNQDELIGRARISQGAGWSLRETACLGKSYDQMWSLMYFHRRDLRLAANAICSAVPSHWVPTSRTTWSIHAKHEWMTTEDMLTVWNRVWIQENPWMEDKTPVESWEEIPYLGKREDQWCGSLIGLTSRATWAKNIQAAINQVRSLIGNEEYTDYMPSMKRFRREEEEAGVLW

In the case of `CSCC[C@H](NC(=O)c1ccc(Cl)c(S(=O)(=O)N2CCCC2)c1)c1nc2ccccc2[nH]1`, the IC50 [1] is reported as 5.06 µM (active) and the IC50 [2] is reported as 4.93 µM (active).
For `O=C1NC(=S)NC(=O)C1=Cc1cccn1-c1ccc(O)cc1`, the IC50 (SUMO-activating enzyme [3]) was 7.4 µM (active), the IC50 (Large T antigen) was 30.3 µM (active) and the IC50 (SUMO-activating enzyme [4]) was 21.9 µM (active). For the same compound, the IC50 [5] was 4.45 µM (active), the EC50 [6] was 10.6 µM (active) and the AC50 [7] was 11.4 µM (active). The CC50 (Vero [8]) was 34.8 µM (active), the CC50 (Vero [9]) was 23 µM (active) and the IC50 (Genome polyprotein) was 34.2 µM (active). For the same compound, the IC50 [10] was 4.82 µM (active).
In the case of `Brc1cc(Br)c2nc(-c3cccs3)ccc2c1`, the EC50 [11] is reported as 34.7 µM (inactive), the EC50 [12] is reported as 47.9 µM (not active) and the EC50 [13] is reported as 30 µM (not active). For the same compound, the IC50 (Protein skinhead-1) was > 100 µM (inactive).
For `Cc1oc(-c2cccs2)nc1CSCC(=O)N1CCC2(CC1)OCCO2`, the AC50 [14] was 256 µM (active).
For `O=C1N=C(Nc2ccc(O)cc2)S/C1=C\C=C\c1ccco1`, the IC50 (SUMO-activating enzyme [3]) was 2.59 µM (active), the IC50 (Large T antigen) was 31.5 µM (active) and the IC50 (SUMO-activating enzyme [4]) was 30.8 µM (active). For the same compound, the CC50 [15] was 2.84 µM (active).
For `Cc1cccc(C)c1NC(=O)CSc1nnc(-c2ccco2)c(-c2ccco2)n1`, the IC50 (Leucine aminopeptidase) was 18.9 µM (active), the IC50 (Estrogen receptor beta) was 2 µM (not active) and the IC50 [5] was 4.92 µM (active). For the same compound, the AC50 (ORF 73) was 160 µM (active).
